ChEMBL document CHEMBL1158859, “Antiprotozoal compounds from Asparagus africanus” (J Nat Prod, 1997)

What was measured:
[1] = Selectivity index, ratio of IC50 for human lymphocyte to IC50 for chloroquine-resistant Plasmodium falciparum Dd2
[2] = Selectivity index, ratio of IC50 for human lymphocyte to IC50 for chloroquine-susceptible Plasmodium falciparum K39
[3] = Selectivity index, ratio of IC50 for human lymphocyte to IC50 for chloroquine-resistant Plasmodium falciparum V1/S
[4] = system: Leishmania major; assay: Antileishmanial activity against Leishmania major promastigotes assessed as inhibition of [3H]thymidine uptake after 18 hrs by scintillation counting; format: functional, organism-based
[5] = Selectivity index, ratio of IC50 for human lymphocyte to IC50 for chloroquine-susceptible Plasmodium falciparum 3D7
[6] = system: Plasmodium falciparum; assay: Antiplasmodial activity against Plasmodium falciparum schizonts assessed as [3H]hypoxanthine incorporation by liquid scintillation counting; format: functional, organism-based; conditions: Dd2
[7] = system: Plasmodium falciparum; assay: Antiplasmodial activity against chloroquine-resistant Plasmodium falciparum V1/S after 48 hrs by [3H]hypoxanthine uptake; format: functional, organism-based
[8] = Selectivity index, ratio of IC50 for human lymphocyte to IC50 for Leishmania major
[9] = system: Plasmodium falciparum; assay: Antiplasmodial activity against chloroquine-susceptible Plasmodium falciparum 3D7 after 24 hrs by [3H]hypoxanthine uptake; format: functional, organism-based
[10] = system: Plasmodium falciparum; assay: Antiplasmodial activity against chloroquine-sensitive Plasmodium falciparum K39 after 48 hrs by [3H]hypoxanthine uptake; format: functional, organism-based
[11] = Inhibition of phytohemagglutininin A-induced human lymphocyte proliferation assessed as radiolabeled [14C]thymidine uptake; format: cell-based
[12] = system: Plasmodium falciparum; assay: Antiplasmodial activity against chloroquine-resistant Plasmodium falciparum Dd2 after 24 hrs by [3H]hypoxanthine uptake; format: functional, organism-based

| SMILES | Ratio IC50 [1] | Ratio IC50 [2] | Ratio IC50 [3] | Activity [4] | IC50 [4] [µM] | Ratio IC50 [5] | Activity [6] | IC50 [6] [µM] | Activity [7] | IC50 [7] [µM] | Ratio IC50 [8] | Activity [9] | IC50 [9] [µM] | Activity [10] | IC50 [10] [µM] | IC50 [11] [µM] | IC50 [12] [µM] |
| --- | --- | --- | --- | --- | --- | --- | --- | --- | --- | --- | --- | --- | --- | --- | --- | --- | --- |
| C[C@@H]1CC[C@@]2(OC1)O[C@H]1C[C@H]3C4=CCC5=CC(=O)[C@@H](O)C[C@]5(C)[C@H]4C[C@H](O)[C@]3(C)[C@H]1[C@@H]2C [MUZANZAGENIN] | 8 | 2.1 | 0.8 | Dose-dependent effect | 70 | 5.6 | Dose-dependent effect | 16 | Dose-dependent effect | 163 | 1.8 | Dose-dependent effect | 23 | Dose-dependent effect | 61 | 129 |  |
| C=C[C@H](/C=C\c1ccc(O)cc1)c1ccc(O)cc1 [NYASOL] | 16.7 |  |  |  | 12 | 16.7 |  | 12 |  |  | 4.1 |  | 12 |  |  | 200 | 49 |
